The test concerns Meth-A tumor cells. As to the kind of experiment: Antitumor activity against Meth-A system. The test is classed as in vivo. To be noted: BALB/c mice; Meth-A 1.5×10^6 cells mixed with 100 μg compound in PBS, intradermal; 27th day after inoculation. Here is the method:
(3) Antitumor Activity Against Meth-A System
A mixture of tumor cells (Meth-A, 1.5×10^6) and 100 μg of Compound 20 of the present invention suspended in PBS was inoculated intradermally in BALB/c mice. […] The value is expressed in terms of the number of tumor-free mice/the number of mice tested.

As for `CCCCCCCCCCCCCCCCCCCCCCCCCCCCCC(=O)S[C@@H]1O[C@H](CO)[C@@H](O)[C@H](O[C@H](C)C(=O)N[C@@H](C)C(=O)N[C@H](CCC(=O)OC)C(N)=O)[C@H]1NC(C)=O` [Compound 20, 2-Acetamido-2-deoxy-1-S-triacontanoyl-3-O-(D-2-propanoyl-L-alanyl-D-isoglutaminemethyl ester)-1-thio-β-D-glucopyranose], the “Suppression of Meth-A growth (number of tumor-free mice/number of mice tested)” value is on record as 5/9.

Values taken from US4606857A, “Muramyldipeptide derivatives” (priority 1982, dated 1986).
